Assay results reported in patent publication USRE47245E1, “Pro-angiogenic peptides and uses thereof” (Susavion Biosciences, Inc., priority 2006, dated 2019).
Where no end group is shown, it is not given here.

Columns and labels:
[1] = system: macrophages in PBMC cultures; test: Stimulation of phagocytosis: macrophages engulfing microspheres opsonized with anti-HIV antibodies; assay type: cell-based, human; details: PBMC cultures pretreated; control cultures 0 to 3 beads
Method: The activity of the peptides to stimulate phagocytosis was assessed by the ability of macrophages to engulf microspheres opsonized with anti-HIV antibodies. A biotin-tagged peptide epitope of a surface protein of HIV-1 was bound to streptavidin on the surface of the beads. An antibody preparation that was raised against this epitope was then bound to the HIV peptide. The beads were then washed and presented to PBMC cultures pretreated with peptides. Macrophages in cultures not treated with peptides had little, if any, phagocytic activity. In multiple control cultures, the number of beads within a macrophage-like cell ranged from 0 to 3. In the cultures treated with peptide constructs containing four copies of the peptide sequences WNSTL (SEQ ID NO:1), NQHTPR (SEQ ID NO:2), or VQATQS (SEQ ID NO:8), an average of 10 beads were counted in each phagocytic cell, with no substantial difference between peptide constructs.

[2] = system: peripheral blood mononuclear cells (PBMCs); test: Regulation of cytokine release: cytokine antibody array on medium of PBMC cultures; assay type: cell-based, human
Method: To determine whether the peptides regulate induction or inhibition of release of cytokines, cultured peripheral blood mononuclear cells (PBMCs) were treated with one peptide embodiment of the invention and, after 4 hour incubation, the medium was collected and assayed for changes in the amounts of 40 different cytokines. The peptide construct containing four copies of WNSTL (SEQ ID NO:1), illustrated in FIG. 2A, was added at a concentration of 100 nM in each of the assays. The PBMC cultures were established with cells from Cellular Technology, Ltd. (Shaker Heights, Ohio). Approximately 3 million cells of frozen human PBMCs were thawed at 37° C. and transferred to a 50 mL conical tube where 8 mL of wash medium were added slowly. Then an additional 8 mL were added and swirled to mix. The cells were then centrifuged at 330 g for 10 min, the supernatant was removed and the pellet was resuspended in 10 mL wash medium and centrifuged as above. The washed cells were then resuspended in RPMI 1640 medium containing 10% FBS to about 6 million cells per mL and 100 μL of the suspension were added into each well of a 96-well microtiter plate and incubated overnight at 37° C. in humidified 5% CO2. After 24 hr, the medium was replaced with 200 μL fresh RPMI 1640 medium containing 10% FBS and incubated at 37° C. in humidified 5% CO2 for 2 days. For the data shown in TABLE 1, an aliquot of the peptide construct was added to samples in duplicate at a final concentration of 5 nM or 100 nM and incubated at 37° C. in humidified 5% CO2 for 4 hr. For other experiments (data not included), the incubation was continued for 24 hr. The medium was then removed and stored at […]. The samples were analyzed for production of cytokines. One set of control cells was not treated with an experimental agent. A second set of control cells was treated with LPS, the agent commonly used to induce production of a variety of inflammatory cytokines.
Assays of cytokine levels in samples of culture media were performed using methods developed by RayBiotech, Inc. (Norcross, Ga.). In this technology, membrane arrays of antibodies against cytokines were incubated with samples of media. After washing, the array was incubated with a cocktail of all antibodies tagged with biotin. The membrane was then washed free of unbound antibodies and incubated with streptavidin labeled with a fluorescent dye. After a final wash, the membrane arrays were read in a fluorescence detector and the intensities of the spots quantitated to obtain relative values.
One set of control samples was not treated with peptide and a second set of control samples was treated with lipopolysaccharide (LPS) in the absence of the peptide construct. The structure of the construct is illustrated in FIG. 2A. […] The decrease in IL-8 concentration in the peptide-treated sample, as compared with the amount of IL-8 in the sample treated with the proto-typical inflammatory agent LPS, is particularly notable. […] The increase in the proangiogenic PDGF-BB and the decrease in the inflammatory IL-8, without concomitant stimulation of inflammation, are of particular importance with respect to wound healing. […]

[3] = PBMCs in serum, 4 hr, construct 100 nM

## VQATQS: construct containing four copies of core sequence VQATQS (also: four copies, branched construct)
[1]
  average beads counted in each phagocytic cell: 10 beads
[2]; [3]
  Relative concentration of Eotaxin-2: 401
  Relative concentration of I-309: 101
  Relative concentration of IL-4: 64
  Relative concentration of IL-6: 167
  Relative concentration of IL-10: 67
  Relative concentration of IL-12p40: 74
  Relative concentration of IL-12p70: 112
  Relative concentration of IL-15: 134
  Relative concentration of IL-16: 10
  Relative concentration of IL-17: 21
  Relative concentration of IL-21: 90
  Relative concentration of IP-10: 334
  Relative concentration of M-CSF: 90
  Relative concentration of MCP-1: 1,966
  Relative concentration of PDGF-BB: 83
  Relative concentration of TGF-β1: 83
  Relative concentration of TIMP-2: 175
  Relative concentration of TNF-α: 98
  Relative concentration of TNF-β: 91
  Relative concentration of sTNF RI: 75
  Relative concentration of sTNF RII: 20

## lipopolysaccharide [LPS, reference compound]
[2]; PBMCs in serum, 4 hr
  Relative concentration of IL-2: 90
  Relative concentration of IL-3: 132
  Relative concentration of IL-13: 125
  Relative concentration of MIP-1a: 237
  Relative concentration of MIP-1d: 38
  change in the amount of the inflammatory cytokine IL-6 compared to untreated control samples: significantly elevated
[2]; [3]
  Relative concentration of Eotaxin: 31
  Relative concentration of Eotaxin-2: 469
  Relative concentration of GCSF: 120
  Relative concentration of GM-CSF: 106
  Relative concentration of I-309: 39
  Relative concentration of ICAM-1: 53
  Relative concentration of IFN-γ: 158
  Relative concentration of IL-1α: 246
  Relative concentration of IL-1β: 47
  Relative concentration of IL-4: 49
  Relative concentration of IL-6: 4,375
  Relative concentration of IL-6sR: 52
  Relative concentration of IL-7: 178
  Relative concentration of IL-8: 840
  Relative concentration of IL-10: 218
  Relative concentration of IL-11: 26
  Relative concentration of IL-12p40: 46
  Relative concentration of IL-12p70: 89
  Relative concentration of IL-15: 104
  Relative concentration of IL-16: 2
  Relative concentration of IL-17: 10
  Relative concentration of IP-10: 268
  Relative concentration of M-CSF: 59
  Relative concentration of MCP-2: 177
  Relative concentration of MIG: 66
  Relative concentration of MIP-1b: 1,828
  Relative concentration of PDGF-BB: 56
  Relative concentration of RANTES: 114
  Relative concentration of TGF-β1: 62
  Relative concentration of TIMP-2: 92
  Relative concentration of TNF-α: 93
  Relative concentration of TNF-β: 95
  Relative concentration of sTNF RI: 58
  Relative concentration of sTNF RII: 26
[2]; in one experiment, untreated control 98
  relative IL-6 concentration: 5,879

## IFN-γ: cytokine Interferon-gamma used as comparison treatment [reference compound]
[1]
  average beads counted in each phagocytic cell: roughly 15 beads
